Assay results published in patent publication US20260034222A1, “HYDROGEL COMPOSITION FOR THE TREATMENT OF PERITONEAL DISEASES” (UPyTher B.V., priority 2023, published 2026).

Columns and labels:
[1] = TLR-agonist release from UPy-PEG hydrogels; assay type: physicochemical; conditions: Polymer 6, 6 and 10 wt %, 0.5 mM MEDI9197 (FIG. 11B)
Procedure: The TLR-agonist resiquimod (synonym R848) was loaded from a stock solution (50 mM in DMSO) to 1.27 mM in the hydrogel. The TLR-agonist telratolimod (synonym MEDI9197) was loaded from a stock solution (10 mM in DMSO) to 0.5 mM in the hydrogel.
The drug loaded solution (100 μL) was transferred to a Millicell insert, which was placed in a 24-wells plate filled with PBS pH 7.4 (700 μL). At set time points the PBS was refreshed and the removed PBS was analyzed for R848 content UV absorbance at 320 nm. For MEDI9197, PBS was substituted for a volatile ammonium carbonate buffer and a HPLC-MS method was used. Release experiments were performed with n=3.

[2] = tested on: mice with peritoneal metastases; conditions: intraperitoneal lavage for 90 minutes versus 60 minutes; cited from earlier work
[3] = Mitomycin C release from UPy-PEG hydrogels; assay type: physicochemical
Procedure: (§1) Mitomycin C was loaded from a stock solution (52 mM in DMSO) to 0.52 mM in the hydrogel solution. The drug loaded solution (100 μL) was transferred to a Millicell insert, which was placed in a 24-wells plate filled with PBS pH 7.4 (600 μL). At set time points the PBS was refreshed and the removed PBS was analyzed for drug content UV absorbance at 363 nm. Release experiments were performed with n=3.

tumor cell lines = conditions: cited from earlier work
patients = conditions: dosing regimens of 35 mg/m2; cited from earlier work
[4] = Drug release from thermoreversible RTGel hydrogel; assay type: physicochemical; conditions: 0.4 mM, PBS pH 7.4 (FIG. 10)
Procedure: RTGel hydrogel was formulated using the following ingredients and quantities:
Mitomycin C and chol-MMC were loaded from a stock solution (30 mM in DMSO) to 0.4 mM in the hydrogel solution. The drug loaded solution (100 μL) was cooled and transferred to a Millicell insert, which was placed in a 24-wells plate filled with PBS pH 7.4 (600 μL). At set time points the PBS was refreshed and the removed PBS was analyzed for drug content UV absorbance at 363 nm. Release experiments were performed with n=3.

[5] = in vivo; cited from earlier work
[6] = in words; cited from earlier work
[7] = Mitomycin C and VX970 combined release from hydrogel; assay type: physicochemical; conditions: Polymer 7, 5 wt %, 12 μg/ml VX970 with 0.52 mM MMC (FIG. 7)
Procedure: as §1, with “C (MMC)” for “C”, “solution. VX970 was loaded from a stock solution (1.2 mg/ml in DMSO) to 12 μg/ml.” for “solution.”, “7.4 (700” for “7.4 (600”, “for MMC” for “for drug”, “content by” for “content”, “nm. For VX970, a HPLC-MS/MS method was used (Kiesel et al.).” for “nm.”

Q: For `CCCCCCCCCCCCCCCCCC(=O)NCCCCOn1c(CCCC)nc2c(N)nc3ccccc3c21` [MEDI9197, telratolimod], which “release rate relative to comparator” value [1] is on record?
A: Its value is “released slower than MMC”.

Q: Which survival [2] does the source give for `CO[C@@]12[C@H](COC(N)=O)C3=C(C(=O)C(C)=C(N)C3=O)N1C[C@@H]1N[C@@H]12` [Mitomycin C] here?
A: Its survival is “better survival”.

Q: And the “duration of sustained mitomycin C release” value ([3]; polymer 6, 6, 7, 8 wt %, 0.52 mM, PBS pH 7.4 (FIG. 6))?
A: The value was 1 to 2 days.

Q: What about the “dependence of drug release on polymer density” value ([3]; polymer 6, 6, 7 or 8 wt %) of the same compound?
A: The value was “not dependent on the polymer density”.

Q: What about the “effect of higher precursor pH on burst release” value ([3]; polymer 6, precursor pH 8.5, 9.0 or 9.5) of the same compound?
A: Its value is “did not give rise to an increased burst release”.

Q: And the “concentration required to kill 90% of the cells” value (tumor cell lines; exposure time more than 10 hours)?
A: The value was 0.1 µg/mL.

Q: And the “concentration needed to kill 90% of the cells in culture” value (tumor cell lines; exposure time shorter than one hour)?
A: The value was 5 µg/mL.

Q: What about the “patients who developed severe bone marrow suppression” value (patients) of the same compound?
A: The value was 28%.

Q: And the “time of release from Pluronic-based RTGel hydrogel” value [4]?
A: Its value is 1 to 2 days.

Q: And the “half-life in the peritoneal cavity” value [5]?
A: The value was 1 to 1.5 h.

Q: For `CNCc1ccc(-c2cc(-c3nc(-c4ccc(S(=O)(=O)C(C)C)cc4)cnc3N)on2)cc1` [VX-970, berzosertib], which solubility in water [6] is on record?
A: The solubility in water was “insoluble in water”.

Q: What about the “release rate relative to MMC” value [7] of the same compound?
A: The value was “released slower than MMC”.

Q: With `CC(=O)O[C@@]12CO[C@@H]1C[C@H](O)[C@@]1(C)C(=O)[C@H](O)C3=C(C)[C@@H](OC(=O)[C@H](O)[C@@H](NC(=O)OC(C)(C)C)c4ccccc4)C[C@@](O)([C@@H](OC(=O)c4ccccc4)[C@H]21)C3(C)C` [docetaxel] as the compound, how does the “clearance from the peritoneal cavity” value [5] read?
A: The value was “cleared in less than day”.

Q: For `CC(=O)O[C@H]1C(=O)[C@@]2(C)[C@H]([C@H](OC(=O)c3ccccc3)[C@]3(O)C[C@H](OC(=O)[C@H](O)[C@@H](NC(=O)c4ccccc4)c4ccccc4)C(C)=C1C3(C)C)[C@]1(OC(C)=O)CO[C@@H]1C[C@@H]2O` [paclitaxel], which “clearance from the peritoneal cavity” value [5] is on record?
A: Its value is “cleared in less than day”.
